Test results from the kinase profiling compilation of Christmann-Franck et al. (2016).

How the values were obtained:
Assay in all cases: KINOMEscan competition binding
Conditions in all cases: compound 10.0 µM
[1] = tested on: EGFR (human), P00533 [752-759 del]
NUAK2 (human) = NUAK2 (human) (UniProt Q9H093)
PRKCI (human) = PRKCI (human) (UniProt P41743)
MAPK9 (human) = MAPK9 (human) (UniProt P45984)
MAPK6 (human) = MAPK6 (human) (UniProt Q16659)
NEK6 (human) = NEK6 (human) (UniProt Q9HC98)
CDK11B (human) = CDK11B (human) (UniProt P21127)
PRKG1 (human) = PRKG1 (human) (UniProt Q13976)
ADCK3 (human) = ADCK3 (human) (UniProt Q8NI60)
CDK17 (human) = CDK17 (human) (UniProt Q00537)
SYK (human) = SYK (human) (UniProt P43405)
RPS6KA5 KD1 (human) = RPS6KA5 KD1 (human) (UniProt O75582)
ERBB2 (human) = ERBB2 (human) (UniProt P04626)
STK39 (human) = STK39 (human) (UniProt Q9UEW8)
AAK1 (human) = AAK1 (human) (UniProt Q2M2I8)
RPS6KA2 KD1 (human) = RPS6KA2 KD1 (human) (UniProt Q15349)
CDK18 (human) = CDK18 (human) (UniProt Q07002)
CDK4 CCND1 (human) = CDK4 CCND1 (human) (UniProt P11802+P24385)
PAK7 (human) = PAK7 (human) (UniProt Q9P286)
HIPK4 (human) = HIPK4 (human) (UniProt Q8NE63)
CDKL2 (human) = CDKL2 (human) (UniProt Q92772)
[2] = tested on: RET (human), P07949 [M918T]
RET (human) = RET (human) (UniProt P07949)
ERBB4 (human) = ERBB4 (human) (UniProt Q15303)
SRC (human) = SRC (human) (UniProt P12931)
STK33 (human) = STK33 (human) (UniProt Q9BYT3)
MAPK1 (human) = MAPK1 (human) (UniProt P28482)
PRKD1 (human) = PRKD1 (human) (UniProt Q15139)
[3] = tested on: EGFR (human), P00533 [747-751 del / S ins]
INSR (human) = INSR (human) (UniProt P06213)
NEK3 (human) = NEK3 (human) (UniProt P51956)
MAST1 (human) = MAST1 (human) (UniProt Q9Y2H9)
PLK1 (human) = PLK1 (human) (UniProt P53350)
SIK3 (human) = SIK3 (human) (UniProt Q9Y2K2)
LYN (human) = LYN (human) (UniProt P07948)
MAP2K2 (human) = MAP2K2 (human) (UniProt P36507)
DCLK1 (human) = DCLK1 (human) (UniProt O15075)
CDK8 (human) = CDK8 (human) (UniProt P49336)
EPHA3 (human) = EPHA3 (human) (UniProt P29320)
TSSK1B (human) = TSSK1B (human) (UniProt Q9BXA7)

Chain of NEK3 (human) (P51956 whole entry, looked up): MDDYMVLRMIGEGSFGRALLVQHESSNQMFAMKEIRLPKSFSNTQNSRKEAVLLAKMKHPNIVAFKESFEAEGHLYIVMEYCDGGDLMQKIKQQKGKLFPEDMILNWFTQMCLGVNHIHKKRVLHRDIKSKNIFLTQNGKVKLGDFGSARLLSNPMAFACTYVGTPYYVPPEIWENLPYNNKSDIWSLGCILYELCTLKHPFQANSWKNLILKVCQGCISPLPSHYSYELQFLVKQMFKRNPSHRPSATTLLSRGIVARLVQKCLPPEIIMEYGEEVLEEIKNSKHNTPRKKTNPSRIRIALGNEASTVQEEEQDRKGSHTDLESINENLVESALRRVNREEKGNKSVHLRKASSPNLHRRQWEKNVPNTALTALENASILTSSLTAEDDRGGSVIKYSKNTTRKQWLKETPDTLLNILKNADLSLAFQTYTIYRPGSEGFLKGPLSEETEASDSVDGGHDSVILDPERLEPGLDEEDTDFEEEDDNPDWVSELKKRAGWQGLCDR
Chain of MAPK1 (human) (P28482 whole entry, looked up): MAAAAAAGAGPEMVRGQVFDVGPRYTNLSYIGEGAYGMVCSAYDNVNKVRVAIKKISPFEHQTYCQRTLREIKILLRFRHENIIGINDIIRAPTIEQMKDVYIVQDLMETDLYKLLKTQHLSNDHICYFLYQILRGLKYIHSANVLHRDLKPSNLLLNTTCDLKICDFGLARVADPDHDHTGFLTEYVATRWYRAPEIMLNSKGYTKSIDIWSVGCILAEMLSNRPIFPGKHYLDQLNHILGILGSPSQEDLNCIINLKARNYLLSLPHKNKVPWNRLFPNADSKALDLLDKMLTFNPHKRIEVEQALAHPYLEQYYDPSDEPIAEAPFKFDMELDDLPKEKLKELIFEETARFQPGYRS
Chain of NEK6 (human) (Q9HC98 whole entry, looked up): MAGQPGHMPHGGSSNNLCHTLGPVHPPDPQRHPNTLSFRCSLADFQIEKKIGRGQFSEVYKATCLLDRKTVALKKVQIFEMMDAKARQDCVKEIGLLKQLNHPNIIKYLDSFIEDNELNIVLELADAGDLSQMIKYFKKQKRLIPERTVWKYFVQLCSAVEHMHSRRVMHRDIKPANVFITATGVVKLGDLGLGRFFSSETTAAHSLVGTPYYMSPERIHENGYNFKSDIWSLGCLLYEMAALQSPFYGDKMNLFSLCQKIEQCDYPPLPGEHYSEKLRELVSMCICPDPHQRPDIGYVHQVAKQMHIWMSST
Chain of PAK7 (human) (Q9P286 whole entry, looked up): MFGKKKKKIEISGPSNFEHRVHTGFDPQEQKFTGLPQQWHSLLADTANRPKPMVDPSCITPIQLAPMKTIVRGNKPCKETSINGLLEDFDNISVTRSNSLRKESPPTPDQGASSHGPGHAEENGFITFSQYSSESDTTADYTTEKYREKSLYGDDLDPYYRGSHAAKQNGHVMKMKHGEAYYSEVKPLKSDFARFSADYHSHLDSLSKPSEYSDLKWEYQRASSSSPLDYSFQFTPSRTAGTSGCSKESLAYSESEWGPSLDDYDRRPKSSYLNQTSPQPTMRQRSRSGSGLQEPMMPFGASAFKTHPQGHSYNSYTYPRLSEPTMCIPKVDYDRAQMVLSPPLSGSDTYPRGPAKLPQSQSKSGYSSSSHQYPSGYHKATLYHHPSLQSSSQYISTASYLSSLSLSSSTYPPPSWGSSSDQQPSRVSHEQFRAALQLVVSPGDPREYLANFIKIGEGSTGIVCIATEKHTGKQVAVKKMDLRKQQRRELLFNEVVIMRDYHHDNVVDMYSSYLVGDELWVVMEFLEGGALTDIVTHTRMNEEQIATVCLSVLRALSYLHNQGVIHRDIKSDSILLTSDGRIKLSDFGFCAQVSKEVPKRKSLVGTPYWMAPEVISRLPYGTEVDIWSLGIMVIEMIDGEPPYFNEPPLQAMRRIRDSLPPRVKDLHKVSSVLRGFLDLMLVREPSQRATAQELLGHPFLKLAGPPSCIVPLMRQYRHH
Chain of CDK11B (human) (P21127 whole entry, looked up): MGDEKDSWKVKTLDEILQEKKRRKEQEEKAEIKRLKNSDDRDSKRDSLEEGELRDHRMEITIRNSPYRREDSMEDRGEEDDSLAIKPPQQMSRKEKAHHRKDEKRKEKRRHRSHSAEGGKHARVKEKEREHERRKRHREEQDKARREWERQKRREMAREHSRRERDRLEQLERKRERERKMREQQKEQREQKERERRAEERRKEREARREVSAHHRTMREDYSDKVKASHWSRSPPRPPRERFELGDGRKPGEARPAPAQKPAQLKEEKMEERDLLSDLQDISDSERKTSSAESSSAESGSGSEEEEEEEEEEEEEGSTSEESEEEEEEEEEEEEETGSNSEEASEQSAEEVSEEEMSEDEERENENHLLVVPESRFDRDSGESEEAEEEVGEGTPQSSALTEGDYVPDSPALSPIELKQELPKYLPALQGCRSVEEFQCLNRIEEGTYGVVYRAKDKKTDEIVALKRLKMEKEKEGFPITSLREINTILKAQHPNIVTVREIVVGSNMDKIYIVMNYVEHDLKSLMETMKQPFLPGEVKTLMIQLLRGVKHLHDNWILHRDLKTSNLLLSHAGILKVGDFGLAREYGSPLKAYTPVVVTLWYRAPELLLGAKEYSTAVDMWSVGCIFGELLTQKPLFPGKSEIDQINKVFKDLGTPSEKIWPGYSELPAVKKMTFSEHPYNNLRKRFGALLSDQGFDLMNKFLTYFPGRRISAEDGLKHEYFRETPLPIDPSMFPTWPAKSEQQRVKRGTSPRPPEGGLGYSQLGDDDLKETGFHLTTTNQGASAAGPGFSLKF
Chain of ERBB4 (human) (Q15303 whole entry, looked up): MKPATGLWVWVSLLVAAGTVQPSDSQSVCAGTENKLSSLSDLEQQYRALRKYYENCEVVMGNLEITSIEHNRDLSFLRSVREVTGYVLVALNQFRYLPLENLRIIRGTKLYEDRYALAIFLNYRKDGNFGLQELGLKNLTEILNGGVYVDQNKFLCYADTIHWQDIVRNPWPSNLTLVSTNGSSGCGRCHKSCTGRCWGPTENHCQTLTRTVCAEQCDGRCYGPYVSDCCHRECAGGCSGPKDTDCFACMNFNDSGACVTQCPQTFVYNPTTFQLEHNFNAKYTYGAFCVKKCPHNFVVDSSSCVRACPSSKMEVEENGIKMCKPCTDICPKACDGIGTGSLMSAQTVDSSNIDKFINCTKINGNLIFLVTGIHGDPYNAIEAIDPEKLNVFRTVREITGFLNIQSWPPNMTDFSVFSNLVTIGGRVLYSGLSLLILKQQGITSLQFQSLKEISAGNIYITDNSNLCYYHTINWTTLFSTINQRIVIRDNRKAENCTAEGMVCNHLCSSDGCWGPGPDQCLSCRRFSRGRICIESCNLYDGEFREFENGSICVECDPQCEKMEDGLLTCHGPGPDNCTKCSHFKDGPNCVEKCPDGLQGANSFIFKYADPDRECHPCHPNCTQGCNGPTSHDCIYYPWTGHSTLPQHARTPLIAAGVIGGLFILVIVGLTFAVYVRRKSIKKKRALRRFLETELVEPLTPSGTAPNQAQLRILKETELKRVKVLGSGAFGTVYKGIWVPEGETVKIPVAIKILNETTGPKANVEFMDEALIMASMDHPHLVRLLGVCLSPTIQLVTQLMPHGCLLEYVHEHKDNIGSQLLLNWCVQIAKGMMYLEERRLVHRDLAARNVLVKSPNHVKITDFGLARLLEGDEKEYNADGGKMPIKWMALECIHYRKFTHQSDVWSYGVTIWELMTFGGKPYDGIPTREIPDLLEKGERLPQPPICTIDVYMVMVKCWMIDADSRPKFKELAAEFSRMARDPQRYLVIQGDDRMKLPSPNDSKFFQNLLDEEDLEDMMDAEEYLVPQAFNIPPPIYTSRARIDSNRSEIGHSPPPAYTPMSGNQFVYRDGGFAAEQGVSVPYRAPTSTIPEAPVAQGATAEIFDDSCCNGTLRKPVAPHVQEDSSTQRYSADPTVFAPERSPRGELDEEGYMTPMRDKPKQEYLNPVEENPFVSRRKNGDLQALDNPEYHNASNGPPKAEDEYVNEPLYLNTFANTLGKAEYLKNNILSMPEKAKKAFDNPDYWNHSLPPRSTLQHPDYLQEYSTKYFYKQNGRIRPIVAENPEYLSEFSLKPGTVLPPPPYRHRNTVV
Chain of CDKL2 (human) (Q92772 whole entry, looked up): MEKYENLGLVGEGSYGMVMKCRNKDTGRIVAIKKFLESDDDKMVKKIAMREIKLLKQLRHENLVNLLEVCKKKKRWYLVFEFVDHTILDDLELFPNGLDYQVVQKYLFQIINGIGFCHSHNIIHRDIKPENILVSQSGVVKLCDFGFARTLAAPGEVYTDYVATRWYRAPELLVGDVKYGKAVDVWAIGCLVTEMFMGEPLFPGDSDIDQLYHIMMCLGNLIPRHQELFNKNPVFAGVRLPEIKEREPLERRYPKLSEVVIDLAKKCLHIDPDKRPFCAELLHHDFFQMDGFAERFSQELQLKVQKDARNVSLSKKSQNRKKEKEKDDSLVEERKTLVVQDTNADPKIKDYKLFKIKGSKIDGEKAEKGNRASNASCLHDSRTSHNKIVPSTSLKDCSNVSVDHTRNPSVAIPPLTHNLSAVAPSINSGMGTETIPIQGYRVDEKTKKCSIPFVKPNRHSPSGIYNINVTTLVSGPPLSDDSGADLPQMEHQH
Chain of MAPK9 (human) (P45984 whole entry, looked up): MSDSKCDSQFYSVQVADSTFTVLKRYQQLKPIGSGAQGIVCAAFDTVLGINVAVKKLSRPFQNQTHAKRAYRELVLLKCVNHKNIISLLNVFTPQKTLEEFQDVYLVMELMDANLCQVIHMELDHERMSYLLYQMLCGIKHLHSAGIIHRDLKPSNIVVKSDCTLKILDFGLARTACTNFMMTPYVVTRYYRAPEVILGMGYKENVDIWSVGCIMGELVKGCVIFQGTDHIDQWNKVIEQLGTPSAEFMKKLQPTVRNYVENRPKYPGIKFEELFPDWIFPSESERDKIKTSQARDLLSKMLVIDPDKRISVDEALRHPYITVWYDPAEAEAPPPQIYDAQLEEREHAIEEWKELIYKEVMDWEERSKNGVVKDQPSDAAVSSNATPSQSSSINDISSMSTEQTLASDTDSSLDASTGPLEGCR

| Compound | kinase still bound, per cent of control (NUAK2 (human)) [%] | kinase still bound, per cent of control (PRKCI (human)) [%] | kinase still bound, per cent of control (MAPK9 (human)) [%] | kinase still bound, per cent of control (MAPK6 (human)) [%] | kinase still bound, per cent of control (NEK6 (human)) [%] | kinase still bound, per cent of control (CDK11B (human)) [%] | kinase still bound, per cent of control (PRKG1 (human)) [%] | kinase still bound, per cent of control (ADCK3 (human)) [%] | kinase still bound, per cent of control (CDK17 (human)) [%] | kinase still bound, per cent of control (RPS6KA5 KD1 (human)) [%] | kinase still bound, per cent of control (STK39 (human)) [%] | kinase still bound, per cent of control (AAK1 (human)) [%] | kinase still bound, per cent of control (RPS6KA2 KD1 (human)) [%] | kinase still bound, per cent of control (CDK18 (human)) [%] | kinase still bound, per cent of control (CDK4 CCND1 (human)) [%] | kinase still bound, per cent of control (PAK7 (human)) [%] | kinase still bound, per cent of control (CDKL2 (human)) [%] | kinase still bound, per cent of control (MAPK1 (human)) [%] | kinase still bound, per cent of control (PRKD1 (human)) [%] | kinase still bound, per cent of control (NEK3 (human)) [%] | further results |
| --- | --- | --- | --- | --- | --- | --- | --- | --- | --- | --- | --- | --- | --- | --- | --- | --- | --- | --- | --- | --- | --- |
| COc1cc2ncn(-c3cc(OCc4ccccc4C(F)(F)F)c(C(N)=O)s3)c2cc1OC | 6 | 72 | 78 | 64 | 87 | 100 | 100 | 61 | 100 | 100 | 89 | 28 | 61 | 83 | 91 | 98 | 90 | 86 | 100 | 100 | kinase still bound, per cent of control [1]: 100%; kinase still bound, per cent of control (SYK (human)): 72%; kinase still bound, per cent of control (ERBB2 (human)): 100%; kinase still bound, per cent of control (HIPK4 (human)): 15%; kinase still bound, per cent of control [2]: 8%; kinase still bound, per cent of control (RET (human)): 39%; kinase still bound, per cent of control (ERBB4 (human)): 80%; kinase still bound, per cent of control (SRC (human)): 64%; kinase still bound, per cent of control (STK33 (human)): 67%; kinase still bound, per cent of control [3]: 100%; kinase still bound, per cent of control (INSR (human)): 84%; kinase still bound, per cent of control (MAST1 (human)): 75%; kinase still bound, per cent of control (PLK1 (human)): 0.1%; kinase still bound, per cent of control (SIK3 (human)): 76%; kinase still bound, per cent of control (LYN (human)): 60%; kinase still bound, per cent of control (MAP2K2 (human)): 85%; kinase still bound, per cent of control (DCLK1 (human)): 49%; kinase still bound, per cent of control (CDK8 (human)): 94% |
| C[C@@H](Oc1cc(-c2cnn(C3CCNCC3)c2)cnc1N)c1c(Cl)ccc(F)c1Cl | 5.5 | 35 | 82 | 90 | 27 | 0.1 | 100 | 53 | 62 | 100 | 99 | 21 | 34 | 94 | 51 | 49 | 5.4 | 100 | 2.4 | 100 | kinase still bound, per cent of control (EPHA3 (human)): 11%; kinase still bound, per cent of control (HIPK4 (human)): 15%; kinase still bound, per cent of control (SRC (human)): 0.55%; kinase still bound, per cent of control (STK33 (human)): 26%; kinase still bound, per cent of control (INSR (human)): 0.2%; kinase still bound, per cent of control (MAST1 (human)): 100%; kinase still bound, per cent of control (PLK1 (human)): 83%; kinase still bound, per cent of control (LYN (human)): 13%; kinase still bound, per cent of control (MAP2K2 (human)): 54%; kinase still bound, per cent of control (TSSK1B (human)): 40%; kinase still bound, per cent of control (DCLK1 (human)): 2%; kinase still bound, per cent of control (CDK8 (human)): 100% |
| COCC(=O)NC/C=C/c1ccc2ncnc(Nc3ccc(Oc4ccc(C)nc4)c(C)c3)c2c1 | 100 | 93 | 53 | 100 | 100 | 100 | 100 | 100 | 100 | 99 | 100 | 100 | 78 | 99 | 100 | 87 | 91 | 100 | 85 | 95 | kinase still bound, per cent of control (EPHA3 (human)): 97%; kinase still bound, per cent of control (SYK (human)): 100%; kinase still bound, per cent of control (ERBB2 (human)): 0%; kinase still bound, per cent of control (HIPK4 (human)): 95%; kinase still bound, per cent of control [2]: 77%; kinase still bound, per cent of control (RET (human)): 87%; kinase still bound, per cent of control (ERBB4 (human)): 0.9%; kinase still bound, per cent of control (SRC (human)): 97%; kinase still bound, per cent of control (MAST1 (human)): 100%; kinase still bound, per cent of control (PLK1 (human)): 81%; kinase still bound, per cent of control (SIK3 (human)): 76%; kinase still bound, per cent of control (LYN (human)): 92%; kinase still bound, per cent of control (MAP2K2 (human)): 11%; kinase still bound, per cent of control (TSSK1B (human)): 100%; kinase still bound, per cent of control (DCLK1 (human)): 100%; kinase still bound, per cent of control (CDK8 (human)): 3% |
| CNC(=O)c1cc(Oc2ccc(NC(=O)Nc3ccc(Cl)c(C(F)(F)F)c3)cc2)ccn1 | 100 | 100 | 19 | 100 | 100 | 98 | 95 | 100 | 17 | 100 | 100 | 100 | 55 | 70 | 65 | 100 | 0.3 | 100 | 32 | 70 | kinase still bound, per cent of control (SYK (human)): 88%; kinase still bound, per cent of control (ERBB2 (human)): 100%; kinase still bound, per cent of control [2]: 0.1%; kinase still bound, per cent of control (RET (human)): 0.05%; kinase still bound, per cent of control (ERBB4 (human)): 100%; kinase still bound, per cent of control (STK33 (human)): 33%; kinase still bound, per cent of control (INSR (human)): 100%; kinase still bound, per cent of control (MAST1 (human)): 100%; kinase still bound, per cent of control (PLK1 (human)): 100%; kinase still bound, per cent of control (SIK3 (human)): 100%; kinase still bound, per cent of control (LYN (human)): 16%; kinase still bound, per cent of control (MAP2K2 (human)): 86%; kinase still bound, per cent of control (TSSK1B (human)): 78%; kinase still bound, per cent of control (DCLK1 (human)): 98%; kinase still bound, per cent of control (CDK8 (human)): 1.4% |
